In ChEMBL document CHEMBL1201861, “Genomics of Drug Sensitity in Cancer screening data, Wellcome Trust Sanger Institute”:

What was measured:
[1] = tested on: LC-1F; assay: cells; type: functional, cell-based, Homo sapiens; conditions: Homo sapiens, LC-1F;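 further: growth inhibition of human LC-1F cells, read out with a cell viability assay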
Description: SANGER: Inhibition of human LC-1F cell growth in a cell viability assay.

[2] = tested on: HT-3; assay: cells; type: functional, cell-based, Homo sapiens; conditions: Homo sapiens, HT-3;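 further: growth inhibition measured with a cell viability readout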
Description: SANGER: Inhibition of human HT-3 cell growth in a cell viability assay.

[3] = tested on: MRK-nu-1; assay: cells; type: functional, cell-based, Homo sapiens; conditions: Homo sapiens, MRK-nu-1;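 further: cell viability assay measuring growth suppression of human MRK-nu-1 cells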
Description: SANGER: Inhibition of human MRK-nu-1 cell growth in a cell viability assay.

[4] = tested on: SK-MEL-30; assay: cells; type: functional, cell-based, Homo sapiens; conditions: Homo sapiens, SK-MEL-30;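 further: growth inhibition of SK-MEL-30 cells, determined with a cell viability assay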
Description: SANGER: Inhibition of human SK-MEL-30 cell growth in a cell viability assay.

[5] = tested on: SW1417; assay: cells; type: functional, cell-based, Homo sapiens; conditions: Homo sapiens, SW1417;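 further: growth inhibition of human SW1417 cells, read out with a cell viability assay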
Description: SANGER: Inhibition of human SW1417 cell growth in a cell viability assay.

[6] = tested on: IMR-5; assay: cells; type: functional, cell-based, Homo sapiens; conditions: Homo sapiens, IMR-5;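 further: growth inhibition of human IMR-5 cells, read out with a cell viability assay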
Description: SANGER: Inhibition of human IMR-5 cell growth in a cell viability assay.

[7] = tested on: NCI-H358; assay: cells; type: functional, cell-based, Homo sapiens; conditions: Homo sapiens, NCI-H358;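 further: growth inhibition of NCI-H358 human cells, read out with a cell viability assay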
Description: SANGER: Inhibition of human NCI-H358 cell growth in a cell viability assay.

[8] = tested on: NCI-H2227; assay: cells; type: functional, cell-based, Homo sapiens; conditions: Homo sapiens, NCI-H2227;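 further: growth inhibition of the human cell line, read out with a cell viability assay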
Description: SANGER: Inhibition of human NCI-H2227 cell growth in a cell viability assay.

[9] = tested on: A204; assay: cells; type: functional, cell-based, Homo sapiens; conditions: Homo sapiens, A204;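 further: growth inhibition of human A204 cells, read out with a cell viability assay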
Description: SANGER: Inhibition of human A204 cell growth in a cell viability assay.

[10] = tested on: TALL-1; assay: cells; type: functional, cell-based, Homo sapiens; conditions: Homo sapiens, TALL-1;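 further: growth inhibition of cultured human TALL-1 cells, read out by a cell viability assay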
Description: SANGER: Inhibition of human TALL-1 cell growth in a cell viability assay.

[11] = tested on: SCLC-21H; assay: cells; type: functional, cell-based, Homo sapiens; conditions: Homo sapiens, SCLC-21H;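 further: growth inhibition of cultured human SCLC-21H cells, read out with a cell viability assay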
Description: SANGER: Inhibition of human SCLC-21H cell growth in a cell viability assay.

[12] = tested on: SW1088; assay: cells; type: functional, cell-based, Homo sapiens; conditions: Homo sapiens, SW1088;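 further: growth inhibition of human SW1088 cells, read out by a cell viability assay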
Description: SANGER: Inhibition of human SW1088 cell growth in a cell viability assay.

[13] = tested on: LCLC-103H cell line; assay: cells; type: functional, cell-based, Homo sapiens; conditions: Homo sapiens, LCLC-103H
Description: SANGER: Inhibition of human LCLC-103H cell growth in a cell viability assay.

[14] = tested on: SW756; assay: cells; type: functional, cell-based, Homo sapiens; conditions: Homo sapiens, SW756;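 further: growth inhibition of human SW756 cells, read out with a cell viability assay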
Description: SANGER: Inhibition of human SW756 cell growth in a cell viability assay.

[15] = tested on: UACC-893; assay: cells; type: functional, cell-based, Homo sapiens; conditions: Homo sapiens, UACC-893
Description: SANGER: Inhibition of human UACC-893 cell growth in a cell viability assay.

[16] = tested on: Ca9-22; assay: cells; type: functional, cell-based, Homo sapiens; conditions: Homo sapiens, Ca9-22;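 further: growth inhibition of Ca9-22 cells, read out with a cell viability assay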
Description: SANGER: Inhibition of human Ca9-22 cell growth in a cell viability assay.

[17] = tested on: 8505C; assay: cells; type: functional, cell-based, Homo sapiens; conditions: Homo sapiens, 8505C
Description: SANGER: Inhibition of human 8505C cell growth in a cell viability assay.

[18] = tested on: M14; assay: cells; type: functional, cell-based, Homo sapiens; conditions: Homo sapiens, M14;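 further: growth inhibition of M14 cells, read out with a cell viability assay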
Description: SANGER: Inhibition of human M14 cell growth in a cell viability assay.

[19] = tested on: COR-L279; assay: SANGER: Inhibition of human COR-L279 cell growth in a cell viability assay.; type: functional, cell-based; conditions: Homo sapiens, COR-L279
[20] = tested on: SW13; assay: cells; type: functional, cell-based, Homo sapiens; conditions: Homo sapiens, SW13;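 further: IC50 is inhibition of SW13 cell growth, read out with a cell viability assay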
Description: SANGER: Inhibition of human SW13 cell growth in a cell viability assay.

[21] = tested on: COR-L105; assay: cells; type: functional, cell-based, Homo sapiens; conditions: Homo sapiens, COR-L105
Description: SANGER: Inhibition of human COR-L105 cell growth in a cell viability assay.

[22] = tested on: NCI-H2081; assay: cells; type: functional, cell-based, Homo sapiens; conditions: Homo sapiens, NCI-H2081;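 further: growth inhibition of human NCI-H2081 cells, read out with a cell viability assay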
Description: SANGER: Inhibition of human NCI-H2081 cell growth in a cell viability assay.

[23] = tested on: CAL-62; assay: cells; type: functional, cell-based, Homo sapiens; conditions: Homo sapiens, CAL-62;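 further: growth inhibition of CAL-62 cells, read out with a cell viability assay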
Description: SANGER: Inhibition of human CAL-62 cell growth in a cell viability assay.

[24] = tested on: NCI-H28; assay: cells; type: functional, cell-based, Homo sapiens; conditions: Homo sapiens, NCI-H28;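 further: growth inhibition of human NCI-H28 cells, read out as cell viability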
Description: SANGER: Inhibition of human NCI-H28 cell growth in a cell viability assay.

[25] = tested on: NCI-H661; assay: cells; type: functional, cell-based, Homo sapiens; conditions: Homo sapiens, NCI-H661;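 further: cell viability assay read-out, IC50 being the concentration that inhibits growth of the cells by half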
Description: SANGER: Inhibition of human NCI-H661 cell growth in a cell viability assay.

[26] = tested on: GP5d; assay: cells; type: functional, cell-based, Homo sapiens; conditions: Homo sapiens, GP5d;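 further: growth inhibition of human GP5d cells, read out with a cell viability assay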
Description: SANGER: Inhibition of human GP5d cell growth in a cell viability assay.

[27] = tested on: SNU-387; assay: cells; type: functional, cell-based, Homo sapiens; conditions: Homo sapiens, SNU-387
Description: SANGER: Inhibition of human SNU-387 cell growth in a cell viability assay.

[28] = tested on: CWR22R; assay: cells; type: functional, cell-based, Homo sapiens; conditions: Homo sapiens, 22Rv1;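 further: growth inhibition of 22Rv1 cells, read out with a cell viability assay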
Description: SANGER: Inhibition of human 22RV1 cell growth in a cell viability assay.

[29] = tested on: K052; assay: cells; type: functional, cell-based, Homo sapiens; conditions: Homo sapiens, K052;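 further: Read-out from a cell viability assay, IC50 reflecting suppression of K052 cell growth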
Description: SANGER: Inhibition of human K052 cell growth in a cell viability assay.

[30] = tested on: THP-1; assay: cells; type: functional, cell-based, Homo sapiens; conditions: Homo sapiens, THP-1;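 further: growth inhibition of THP-1 cells, read out via a cell viability assay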
Description: SANGER: Inhibition of human THP-1 cell growth in a cell viability assay.

[31] = tested on: NCI-H2342; assay: cells; type: functional, cell-based, Homo sapiens; conditions: Homo sapiens, NCI-H2342;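 further: growth inhibition of the cancer cell line, determined with a cell viability assay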
Description: SANGER: Inhibition of human NCI-H2342 cell growth in a cell viability assay.

[32] = tested on: BHY; assay: cells; type: functional, cell-based, Homo sapiens; conditions: Homo sapiens, BHY;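 further: cell growth inhibition read out by a viability assay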
Description: SANGER: Inhibition of human BHY cell growth in a cell viability assay.

[33] = tested on: KMS-12-PE; assay: cells; type: functional, cell-based, Homo sapiens; conditions: Homo sapiens, KMS-12-PE;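 further: growth inhibition of human KMS-12-PE cells, measured with a cell viability assay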
Description: SANGER: Inhibition of human KMS-12-PE cell growth in a cell viability assay.

[34] = tested on: CAL-33; assay: cells; type: functional, cell-based, Homo sapiens; conditions: Homo sapiens, CAL-33;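 further: growth inhibition of CAL-33 cells, read out with a cell viability assay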
Description: SANGER: Inhibition of human CAL-33 cell growth in a cell viability assay.

[35] = tested on: SJRH30; assay: cells; type: functional, cell-based, Homo sapiens; conditions: Homo sapiens, SJRH30;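 further: growth inhibition of human SJRH30 cells, read out with a cell viability assay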
Description: SANGER: Inhibition of human SJRH30 cell growth in a cell viability assay.

[36] = tested on: PC-3; assay: cells; type: functional, cell-based, Homo sapiens; conditions: Homo sapiens, PC-3;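 further: cell viability assay measuring growth inhibition of PC-3 cells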
Description: SANGER: Inhibition of human PC-3 cell growth in a cell viability assay.

[37] = tested on: HT-29; assay: cells; type: functional, cell-based, Homo sapiens; conditions: Homo sapiens, HT-29;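 further: growth inhibition of human HT-29 cells, read out by a cell viability assay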
Description: SANGER: Inhibition of human HT-29 cell growth in a cell viability assay.

[38] = tested on: NCI-H345; assay: cells; type: functional, cell-based, Homo sapiens; conditions: Homo sapiens, NCI-H345;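 further: growth inhibition of NCI-H345 cells measured with a cell viability assay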
Description: SANGER: Inhibition of human NCI-H345 cell growth in a cell viability assay.

[39] = tested on: NCI-H1651; assay: cells; type: functional, cell-based, Homo sapiens; conditions: Homo sapiens, NCI-H1651;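 further: Read-out is a cell viability assay, with IC50 expressing inhibition of NCI-H1651 cell growth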
Description: SANGER: Inhibition of human NCI-H1651 cell growth in a cell viability assay.

[40] = tested on: U2OS; assay: cells; type: functional, cell-based, Homo sapiens, U-2-OS; conditions: Homo sapiens, U2OS;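 further: growth inhibition of human U-2-OS cells, determined with a cell viability assay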
Description: SANGER: Inhibition of human U-2-OS cell growth in a cell viability assay.

[41] = tested on: 639-V; assay: cells; type: functional, cell-based, Homo sapiens; conditions: Homo sapiens, 639-V;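 further: growth inhibition of 639-V cells, read out with a cell viability assay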
Description: SANGER: Inhibition of human 639-V cell growth in a cell viability assay.

[42] = tested on: CAL-51; assay: cells; type: functional, cell-based, Homo sapiens; conditions: Homo sapiens, CAL-51;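 further: human CAL-51 cell line, growth inhibition read out via a cell viability assay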
Description: SANGER: Inhibition of human CAL-51 cell growth in a cell viability assay.

[43] = tested on: EB-3; assay: cells; type: functional, cell-based, Homo sapiens; conditions: Homo sapiens, EB-3;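 further: human EB-3 cells, growth inhibition read out via a cell viability assay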
Description: SANGER: Inhibition of human EB-3 cell growth in a cell viability assay.

[44] = tested on: NCI-H1793; assay: cells; type: functional, cell-based, Homo sapiens; conditions: Homo sapiens, NCI-H1793;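 further: cell growth inhibition, read out by a cell viability assay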
Description: SANGER: Inhibition of human NCI-H1793 cell growth in a cell viability assay.

[45] = tested on: SR; assay: cells; type: functional, cell-based, Homo sapiens; conditions: Homo sapiens, SR
Description: SANGER: Inhibition of human SR cell growth in a cell viability assay.

Cc1cc([N+](=O)[O-])ccc1NS(=O)(=O)c1cc(Cl)ccc1Cl
IC50 [1]: > 32 µM | IC50 [2]: > 32 µM | IC50 [3]: 2.73 µM | IC50 [4]: 5.76 µM | IC50 [5]: 11.4 µM | IC50 [6]: 11.2 µM | IC50 [7]: 6.31 µM | IC50 [8]: > 32 µM | IC50 [9]: 6.09 µM | IC50 [10]: 6.23 µM | IC50 [11]: 4.84 µM | IC50 [12]: 12.3 µM | IC50 [13]: 5.6 µM | IC50 [14]: 2.97 µM | IC50 [15]: 3.06 µM | IC50 [16]: 6 µM | IC50 [17]: 2.67 µM | IC50 [18]: > 32 µM | IC50 [19]: > 32 µM | IC50 [20]: 1.99 µM | IC50 [21]: 6.58 µM | IC50 [22]: > 32 µM | IC50 [23]: 2.65 µM | IC50 [24]: 8.5 µM | IC50 [25]: 2.82 µM | IC50 [26]: 1.14 µM | IC50 [27]: 7.66 µM | IC50 [28]: 2.63 µM | IC50 [29]: 14.2 µM | IC50 [30]: 19.6 µM | IC50 [31]: 4.93 µM | IC50 [32]: 4.5 µM | IC50 [33]: > 32 µM | IC50 [34]: 3.56 µM | IC50 [35]: 2.07 µM | IC50 [36]: 8.12 µM | IC50 [37]: 5.53 µM | IC50 [38]: 17.8 µM | IC50 [39]: 3.94 µM | IC50 [40]: > 32 µM | IC50 [41]: 1.61 µM | IC50 [42]: 2.75 µM | IC50 [43]: 4.25 µM | IC50 [44]: > 32 µM | IC50 [45]: 4.95 µM

Oc1ccc2ccccc2c1SSc1c(O)ccc2ccccc12
IC50 [1]: > 32 µM | IC50 [2]: > 32 µM | IC50 [3]: > 32 µM | IC50 [4]: > 32 µM | IC50 [5]: > 32 µM | IC50 [6]: > 32 µM | IC50 [7]: > 32 µM | IC50 [8]: > 32 µM | IC50 [9]: > 32 µM | IC50 [10]: > 32 µM | IC50 [11]: > 32 µM | IC50 [12]: > 32 µM | IC50 [13]: 18.5 µM | IC50 [14]: > 32 µM | IC50 [15]: > 32 µM | IC50 [16]: 28.1 µM | IC50 [17]: 11.2 µM | IC50 [18]: > 32 µM | IC50 [19]: > 32 µM | IC50 [20]: > 32 µM | IC50 [21]: 7.36 µM | IC50 [22]: > 32 µM | IC50 [23]: > 32 µM | IC50 [24]: > 32 µM | IC50 [25]: > 32 µM | IC50 [26]: > 32 µM | IC50 [27]: > 32 µM | IC50 [28]: > 32 µM | IC50 [29]: > 32 µM | IC50 [30]: > 32 µM | IC50 [31]: > 32 µM | IC50 [32]: 24.5 µM | IC50 [33]: > 32 µM | IC50 [34]: > 32 µM | IC50 [35]: > 32 µM | IC50 [36]: > 32 µM | IC50 [37]: > 32 µM | IC50 [38]: > 32 µM | IC50 [39]: > 32 µM | IC50 [40]: > 32 µM | IC50 [41]: > 32 µM | IC50 [42]: 3.55 µM | IC50 [43]: 10.5 µM | IC50 [44]: > 32 µM | IC50 [45]: 5.37 µM

C=C(c1ccc(C(=O)O)cc1)c1cc2c(cc1C)C(C)(C)CCC2(C)C [BEXAROTENE]
IC50 [1]: > 8 µM | IC50 [2]: > 8 µM | IC50 [3]: > 8 µM | IC50 [4]: > 8 µM | IC50 [5]: > 8 µM | IC50 [6]: > 8 µM | IC50 [7]: > 8 µM | IC50 [8]: > 8 µM | IC50 [9]: > 8 µM | IC50 [10]: > 8 µM | IC50 [11]: > 8 µM | IC50 [12]: > 8 µM | IC50 [13]: > 8 µM | IC50 [14]: > 8 µM | IC50 [15]: > 8 µM | IC50 [16]: > 8 µM | IC50 [17]: > 8 µM | IC50 [18]: > 8 µM | IC50 [19]: > 8 µM | IC50 [20]: > 8 µM | IC50 [21]: > 8 µM | IC50 [22]: > 8 µM | IC50 [23]: > 8 µM | IC50 [24]: > 8 µM | IC50 [25]: > 8 µM | IC50 [26]: > 8 µM | IC50 [27]: > 8 µM | IC50 [28]: > 8 µM | IC50 [29]: > 8 µM | IC50 [30]: > 8 µM | IC50 [31]: > 8 µM | IC50 [32]: > 8 µM | IC50 [33]: > 8 µM | IC50 [34]: > 8 µM | IC50 [35]: > 8 µM | IC50 [36]: > 8 µM | IC50 [37]: > 8 µM | IC50 [38]: > 8 µM | IC50 [39]: > 8 µM | IC50 [40]: > 8 µM | IC50 [41]: > 8 µM | IC50 [42]: > 8 µM | IC50 [43]: > 8 µM | IC50 [44]: > 8 µM | IC50 [45]: > 8 µM
